Results reported in ChEMBL document CHEMBL3875145, “Highly potent anti-leishmanial derivatives of hederagenin, a triperpenoid from Sapindus saponaria L” (Eur J Med Chem, 2016).

Tested on: Leishmania infantum
Test: Antiparasitic activity against Leishmania infantum MHOM/BR/70/BH46 promastigotes infected in dog DH82 cells at 1000 uM after 48 hrs by ELISA method
Assay type: functional
Settings: MHOM/BR/70/BH46, DH82, 48 h

| SMILES | inhibition at 1000 µM [%] |
| --- | --- |
| CC1(C)CC[C@]2(C(=O)OCc3ccccc3)CC[C@]3(C)C(=CC[C@@H]4[C@@]5(C)CC[C@H](O)[C@@](C)(CO)[C@@H]5CC[C@]43C)[C@@H]2C1 | 30.2 |
| CC1(C)CC[C@]2(C(=O)OCc3ccccc3[N+](=O)[O-])CC[C@]3(C)C(=CC[C@@H]4[C@@]5(C)CC[C@H](O)[C@@](C)(CO)[C@@H]5CC[C@]43C)[C@@H]2C1 | 71.7 |
| CC1(C)CC[C@]2(C(=O)OCc3ccccc3Br)CC[C@]3(C)C(=CC[C@@H]4[C@@]5(C)CC[C@H](O)[C@@](C)(CO)[C@@H]5CC[C@]43C)[C@@H]2C1 | 40 |
| CC1(C)CC[C@]2(C(=O)OCc3ccccc3F)CC[C@]3(C)C(=CC[C@@H]4[C@@]5(C)CC[C@H](O)[C@@](C)(CO)[C@@H]5CC[C@]43C)[C@@H]2C1 | 26 |
| CC1(C)CC[C@]2(C(=O)OCc3ccc(F)cc3F)CC[C@]3(C)C(=CC[C@@H]4[C@@]5(C)CC[C@H](O)[C@@](C)(CO)[C@@H]5CC[C@]43C)[C@@H]2C1 | 16 |
| CC1(C)CC[C@]2(C(=O)OCc3ccccc3Cl)CC[C@]3(C)C(=CC[C@@H]4[C@@]5(C)CC[C@H](O)[C@@](C)(CO)[C@@H]5CC[C@]43C)[C@@H]2C1 | 15.8 |
| Cc1ccccc1COC(=O)[C@]12CCC(C)(C)C[C@H]1C1=CC[C@@H]3[C@@]4(C)CC[C@H](O)[C@@](C)(CO)[C@@H]4CC[C@@]3(C)[C@]1(C)CC2 | 39 |
| CC1(C)CC[C@]2(C(=O)OCc3cccc(Cl)c3)CC[C@]3(C)C(=CC[C@@H]4[C@@]5(C)CC[C@H](O)[C@@](C)(CO)[C@@H]5CC[C@]43C)[C@@H]2C1 | 23 |
| C#CCOC(=O)[C@]12CCC(C)(C)C[C@H]1C1=CC[C@@H]3[C@@]4(C)CC[C@H](O)[C@@](C)(CO)[C@@H]4CC[C@@]3(C)[C@]1(C)CC2 | 19 |
| CC1(C)CC[C@]2(C(=O)OCc3ccc([N+](=O)[O-])cc3)CC[C@]3(C)C(=CC[C@@H]4[C@@]5(C)CC[C@H](O)[C@@](C)(CO)[C@@H]5CC[C@]43C)[C@@H]2C1 | 28 |
| CC1(C)CC[C@]2(C(=O)OCc3ccc(Cl)cc3)CC[C@]3(C)C(=CC[C@@H]4[C@@]5(C)CC[C@H](O)[C@@](C)(CO)[C@@H]5CC[C@]43C)[C@@H]2C1 | 53 |
| CC1(C)CC[C@]2(C(=O)OCc3cccc(Br)c3)CC[C@]3(C)C(=CC[C@@H]4[C@@]5(C)CC[C@H](O)[C@@](C)(CO)[C@@H]5CC[C@]43C)[C@@H]2C1 | 20 |
| CC1(C)CC[C@]2(C(=O)NCCN3CCCCC3)CC[C@]3(C)C(=CC[C@@H]4[C@@]5(C)CC[C@H](O)[C@@](C)(CO)[C@@H]5CC[C@]43C)[C@@H]2C1 | 0 |
| CC1(C)CC[C@]2(C(=O)NCCN3CCCC3)CC[C@]3(C)C(=CC[C@@H]4[C@@]5(C)CC[C@H](O)[C@@](C)(CO)[C@@H]5CC[C@]43C)[C@@H]2C1 | 0 |
| CC1(C)CC[C@]2(C(=O)NCCN3CCOCC3)CC[C@]3(C)C(=CC[C@@H]4[C@@]5(C)CC[C@H](O)[C@@](C)(CO)[C@@H]5CC[C@]43C)[C@@H]2C1 | 7 |
| CC1(C)CC[C@]2(C(=O)OCc3cn(Cc4c(Cl)cccc4Cl)nn3)CC[C@]3(C)C(=CC[C@@H]4[C@@]5(C)CC[C@H](O)[C@@](C)(CO)[C@@H]5CC[C@]43C)[C@@H]2C1 | 44.5 |
| CC1(C)CC[C@]2(C(=O)NCc3cn(Cc4ccccc4F)nn3)CC[C@]3(C)C(=CC[C@@H]4[C@@]5(C)CC[C@H](O)[C@@](C)(CO)[C@@H]5CC[C@]43C)[C@@H]2C1 | 31 |

| SMILES | inhibition at 1000 µM [%] |
| --- | --- |
| CC1(C)CC[C@]2(C(=O)NCc3cn(Cc4cccc(Br)c4)nn3)CC[C@]3(C)C(=CC[C@@H]4[C@@]5(C)CC[C@H](O)[C@@](C)(CO)[C@@H]5CC[C@]43C)[C@@H]2C1 | 33.3 |
| CC1(C)CC[C@]2(C(=O)OCc3cn(Cc4ccccc4)nn3)CC[C@]3(C)C(=CC[C@@H]4[C@@]5(C)CC[C@H](O)[C@@](C)(CO)[C@@H]5CC[C@]43C)[C@@H]2C1 | 23.5 |
| CC1(C)CC[C@]2(C(=O)OCc3cn(Cc4ccc(Br)cc4)nn3)CC[C@]3(C)C(=CC[C@@H]4[C@@]5(C)CC[C@H](O)[C@@](C)(CO)[C@@H]5CC[C@]43C)[C@@H]2C1 | 27.7 |
| CC1(C)CC[C@]2(C(=O)OCc3cn(Cc4ccc([N+](=O)[O-])cc4)nn3)CC[C@]3(C)C(=CC[C@@H]4[C@@]5(C)CC[C@H](O)[C@@](C)(CO)[C@@H]5CC[C@]43C)[C@@H]2C1 | 17 |
| CC1(C)CC[C@]2(C(=O)NCc3cn(Cc4cccc([N+](=O)[O-])c4)nn3)CC[C@]3(C)C(=CC[C@@H]4[C@@]5(C)CC[C@H](O)[C@@](C)(CO)[C@@H]5CC[C@]43C)[C@@H]2C1 | 25.4 |
| CC1(C)CC[C@]2(C(=O)NCc3cn(Cc4ccc([N+](=O)[O-])cc4)nn3)CC[C@]3(C)C(=CC[C@@H]4[C@@]5(C)CC[C@H](O)[C@@](C)(CO)[C@@H]5CC[C@]43C)[C@@H]2C1 | 14 |
| CC1(C)CC[C@]2(C(=O)NCc3cn(Cc4ccc(F)cc4)nn3)CC[C@]3(C)C(=CC[C@@H]4[C@@]5(C)CC[C@H](O)[C@@](C)(CO)[C@@H]5CC[C@]43C)[C@@H]2C1 | 10.2 |
| CC1(C)CC[C@]2(C(=O)OCc3cn(Cc4ccccc4Cl)nn3)CC[C@]3(C)C(=CC[C@@H]4[C@@]5(C)CC[C@H](O)[C@@](C)(CO)[C@@H]5CC[C@]43C)[C@@H]2C1 | 0 |
| CC1(C)CC[C@]2(C(=O)NCc3cn(Cc4cccc(Cl)c4)nn3)CC[C@]3(C)C(=CC[C@@H]4[C@@]5(C)CC[C@H](O)[C@@](C)(CO)[C@@H]5CC[C@]43C)[C@@H]2C1 | 31.1 |
| CC1(C)CC[C@]2(C(=O)OCc3cn(Cc4c(F)cccc4F)nn3)CC[C@]3(C)C(=CC[C@@H]4[C@@]5(C)CC[C@H](O)[C@@](C)(CO)[C@@H]5CC[C@]43C)[C@@H]2C1 | 34 |
| CC1(C)CC[C@]2(C(=O)NCc3cn(Cc4ccccc4)nn3)CC[C@]3(C)C(=CC[C@@H]4[C@@]5(C)CC[C@H](O)[C@@](C)(CO)[C@@H]5CC[C@]43C)[C@@H]2C1 | 11 |
| CC1(C)CC[C@]2(C(=O)OCc3cn(Cc4cccc([N+](=O)[O-])c4)nn3)CC[C@]3(C)C(=CC[C@@H]4[C@@]5(C)CC[C@H](O)[C@@](C)(CO)[C@@H]5CC[C@]43C)[C@@H]2C1 | 26.3 |
| CC1(C)CC[C@]2(C(=O)OCc3cn(Cc4ccc(Cl)cc4)nn3)CC[C@]3(C)C(=CC[C@@H]4[C@@]5(C)CC[C@H](O)[C@@](C)(CO)[C@@H]5CC[C@]43C)[C@@H]2C1 | 35 |
| CC1(C)CC[C@]2(C(=O)NCc3cn(Cc4ccc(Br)cc4)nn3)CC[C@]3(C)C(=CC[C@@H]4[C@@]5(C)CC[C@H](O)[C@@](C)(CO)[C@@H]5CC[C@]43C)[C@@H]2C1 | 27 |
| COC(=O)C(NC(=O)[C@]12CCC(C)(C)C[C@H]1C1=CC[C@@H]3[C@@]4(C)CC[C@H](O)[C@@](C)(CO)[C@@H]4CC[C@@]3(C)[C@]1(C)CC2)c1ccccc1 (stereo partly drawn) | 60 |
| CC1(C)CC[C@]2(C(=O)NC(Cc3c[nH]c4ccccc34)C(=O)O)CC[C@]3(C)C(=CC[C@@H]4[C@@]5(C)CC[C@H](O)[C@@](C)(CO)[C@@H]5CC[C@]43C)[C@@H]2C1 (stereo partly drawn) | 50 |
